Laboratory results: patent publication US6346615B1, “Chemiluminescent 1,2-dioxetanes” (Tropix, Inc., priority 1989, dated 2002)

What was measured:
alkaline phosphatase [1] = assay: Quantum yield determination of dioxetane chemiluminescence after alkaline phosphatase addition; format: biochemical; details: 0.1M DEA, pH, 25° C., dioxetane concentration 3.7 × 10^−7M to 6 × 10^−6M
Excerpt: Various dioxetanes within the scope of this invention have been prepared and tested for essential properties, such as quantum yield (performed by an independent laboratory according to the procedure listed below), T½ and the emission wavelength maxima. These dioxetanes are identified by number, and in the tables following after the number, the identity of the substituent on the adamantyl ring, if any followed by the identity of the Z substituent is given. In the compounds tested, X is phosphate. Values for quantum yield and T½ are obtained both for the dioxetane along in 0.1 molar DEA, and in the presence of an enhancement agent, Sapphire II.
[…] […] […] The tube was then placed in MGM Optocomp® I luminometer and the light signal was measured at 1 sec integration times. […] The total counts for the dioxetane were determined from the intensity data. Total counts observed for a given concentration of dioxetane is the product of Photon Detection Efficiency (PDE) of the luminometer, the quantum yield of dioxetane and the number of molecules capable of emitting light (concentration of dephosphorylated dioxetanes). PDE for the MGM Optocomp® I luminometer was determined to be 2.56×10^−3, measured with a Biolink® absolute standard and utilizing the known spectral response of the luminometer's PMT and the known emission spectrum of the dioxetanes. The quantum yield is calculated by dividing the total counts measured by the PDE and the concentration of the dioxetane.

alkaline phosphatase [2] = assay: Chemiluminescence emission wavelength maximum (Spex Fluorolog); format: biochemical; details: for μL em: 0.1M DEA, pH, 25° C., dioxetane concentration 3.7 × 10^−7M to 6 × 10^−6M; for Emission Max, nm, +BDMQ: in the presence of BDMQ; for Emission Max, nm, No Addition: no enhancement agent; for Emission Max, nm, On Nylon: on a nylon membrane
Experimental: […] The solution was equilibrated 5 minutes in a Spex Fluorolog Fluorimeter and then scanned 5 times at 0.5 sec/nm for chemiluminescent emission. The chemiluminescence emission wavelength maximum was recorded.

SMILES	Quantum Yield (alkaline phosphatase [1])	Quantum Yield (alkaline phosphatase [1]; second table)	μL em (alkaline phosphatase [2])	μL em (alkaline phosphatase [2]; second table)	Emission Max, nm, +BDMQ (alkaline phosphatase [2])	Emission Max, nm, No Addition (alkaline phosphatase [2])	Emission Max, nm, On Nylon (alkaline phosphatase [2])
COC1(c2cccc(OP(=O)(O)O)c2)OOC12C1CC3CC(C1)CC2C3 (stereo not drawn) [AMPPD, 3-(2′-spiroadamantane)4-methoxy-4-(3″-phosphoryloxy)phenyl-1,2-dioxetane, reference compound]	1.5 × 10^−5	1.5 × 10^−5	477	477			
COC1(c2cccc(OP(=O)(O)O)c2)OOC12C1CC3CC2CC(Cl)(C3)C1 (stereo not drawn) [CSPD, reference compound]	5.2 × 10^−5	5.2 × 10^−5	475	475			
COC1(c2cc(Cl)cc(OP(=O)([O-])[O][NaH2-2])c2)OOC12C1CC3CC(C1)CC2C3.[Na+] (stereo not drawn) [Dioxetane 128-70, Disodium 3-chloro-5-(methoxyspiro(1,2-dioxetane-3,2′-tricylo[3.3.1.1^3,7]-decan]-4-yl)-1-phenyl Phosphate]	1.4 × 10^−4	1.4 × 10^−4	471	471	463 nm	471 nm	461 nm
COC1(c2cc(Cl)cc(OP(=O)([O-])[O][NaH2-2])c2)OOC12C1CC3CC2CC(Cl)(C3)C1.[Na+] (stereo not drawn) [Dioxetane 128-87, Disodium 3-chloro-5-(methoxyspiro(1,2-dioxetane-3,2′-(5-chloro-)tricyclo-[3.3.1.1^3,7]-decan]-4-yl)-1-phenyl Phosphate]	1.2 × 10^−4	1.2 × 10^−4	470	470	464 nm	470 nm	459 nm
COc1cc(OP(=O)([O-])[O][NaH2-2])cc(C2(OC)OOC23C2CC4CC3CC(Cl)(C4)C2)c1.[Na+] (stereo not drawn) [Dioxetane 140-17, Disodium 5-methoxy-3-(methoxyspiro(1,2-dioxetane-3,2′-(5-chloro-)tricyclo-[3.3.1.1^3,7]-decan]-4-yl)-1-phenyl Phosphate]	2.3 × 10^−5	2.3 × 10^−5	475	475	464 nm	475 nm	463 nm
COc1cc(OP(=O)([O-])[O][NaH2-2])cc(C2(OC)OOC23C2CC4CC(C2)CC3C4)c1.[Na+] (stereo not drawn) [Dioxetane 140-20, Disodium 5-methoxy-3-(methoxyspiro(1,2-dioxetane-3,2′-tricyclo[3.3.1.1^3,7]-decan]-4-yl)-1-phenyl Phosphate]	1.5 × 10^−5	1.5 × 10^−5	476	476	466 nm	476 nm	461 nm
